Where two headings read alike, the source gives them in different places.
Columns and labels:
Human CD39 (NTPDase1) [1] = target: T1, Human CD39 (NTPDase1) (Homo sapiens, UniProt P49961); conditions: literature value; cited from earlier work
T1 sequence (P49961 1-510): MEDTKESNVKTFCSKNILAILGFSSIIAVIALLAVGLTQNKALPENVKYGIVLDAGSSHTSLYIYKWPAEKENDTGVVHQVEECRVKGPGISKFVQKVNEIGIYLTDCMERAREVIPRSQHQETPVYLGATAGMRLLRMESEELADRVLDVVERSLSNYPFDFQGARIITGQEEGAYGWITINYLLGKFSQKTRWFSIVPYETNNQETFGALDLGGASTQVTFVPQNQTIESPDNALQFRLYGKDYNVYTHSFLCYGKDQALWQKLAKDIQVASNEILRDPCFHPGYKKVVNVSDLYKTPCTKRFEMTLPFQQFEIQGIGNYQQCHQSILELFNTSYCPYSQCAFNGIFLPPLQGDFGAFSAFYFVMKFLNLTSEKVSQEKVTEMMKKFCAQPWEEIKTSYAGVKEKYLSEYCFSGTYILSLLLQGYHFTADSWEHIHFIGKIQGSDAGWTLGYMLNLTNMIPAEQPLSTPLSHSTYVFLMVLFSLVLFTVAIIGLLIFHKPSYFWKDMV

NPP1 [2] = target: T2, NPP1 (Homo sapiens, UniProt P22413); test: Inhibition of human NPP1, 100 μM p-Nph-5′-TMP as substrate (Tables 5, 6); conditions: for inhibition at 10 µM: read-out: % inhibition ± SEM at 10 μM, human NPP1
T2 sequence (P22413 1-925): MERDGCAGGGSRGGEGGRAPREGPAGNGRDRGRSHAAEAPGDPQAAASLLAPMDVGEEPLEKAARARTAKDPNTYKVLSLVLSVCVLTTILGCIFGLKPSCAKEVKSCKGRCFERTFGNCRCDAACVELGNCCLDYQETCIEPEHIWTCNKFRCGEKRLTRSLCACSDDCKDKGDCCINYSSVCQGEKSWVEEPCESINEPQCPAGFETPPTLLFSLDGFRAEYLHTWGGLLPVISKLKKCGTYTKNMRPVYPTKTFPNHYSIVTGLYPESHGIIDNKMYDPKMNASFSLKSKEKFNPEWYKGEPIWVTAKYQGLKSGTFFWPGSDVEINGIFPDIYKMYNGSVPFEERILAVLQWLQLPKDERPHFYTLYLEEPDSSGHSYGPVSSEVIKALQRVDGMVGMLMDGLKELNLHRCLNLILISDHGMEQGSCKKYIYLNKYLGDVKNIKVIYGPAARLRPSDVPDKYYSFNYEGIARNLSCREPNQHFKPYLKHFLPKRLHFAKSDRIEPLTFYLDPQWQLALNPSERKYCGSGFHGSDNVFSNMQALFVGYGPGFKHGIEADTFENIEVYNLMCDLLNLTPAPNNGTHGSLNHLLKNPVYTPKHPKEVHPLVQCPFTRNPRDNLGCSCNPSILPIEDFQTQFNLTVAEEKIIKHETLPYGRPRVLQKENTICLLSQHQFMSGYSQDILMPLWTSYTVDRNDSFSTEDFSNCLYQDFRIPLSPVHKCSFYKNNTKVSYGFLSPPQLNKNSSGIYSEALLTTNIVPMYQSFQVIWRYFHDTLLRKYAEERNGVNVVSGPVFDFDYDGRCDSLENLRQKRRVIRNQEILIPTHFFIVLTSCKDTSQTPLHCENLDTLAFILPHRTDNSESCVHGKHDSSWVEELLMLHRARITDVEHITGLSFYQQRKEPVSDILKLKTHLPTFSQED

NPP1 [3] = target: T2, NPP1; test: Inhibition of human NPP1, 100 μM ATP as substrate (FIG. 9, Table 6); format: biochemical; conditions: for inhibition at 10 µM: n = 3, read-out: % inhibition ± SEM at 10 μM, human NPP1
Description: Each experiment was performed in triplicates;

[4] = tested on: primary human chondrocytes; test: Cell viability of primary human chondrocytes, XTT assay; format: cell-based; conditions: cultured primary human chondrocytes, 0.1 mM
Description: FIG. 11: Analogs 20-28 are not toxic to primary human chondrocytes. Chondrocytes were incubated with analogs 20-28 at the indicated concentrations for 24 h, and then cell viability was assessed by the XTT assay;
FIG. 15: The effects of analogs 106-109 on primary human chondrocytes. (A) Analogs 106-109 inhibit NPPase activity in primary chondrocytes. NPPase activity was assayed by measuring the hydrolysis of the chromogenic substrate, pnp-TMP. […] Alkaline phosphatase activity was assayed by hydrolysis of p-nitrophenyl phosphate. (C) Analogs 106-109 are not toxic to cultured chondrocytes at a concentration of 0.1 mM. Cell viability was assessed by the XTT assay. Mean (columns) and SD (error bars) of triplicate cell culture experiments are shown.
A prerequisite for the application of inhibitors 20-28 as therapeutic agents is the lack of toxicity. For this purpose, primary human chondrocytes were cultured with analogs 20-28 at a high concentration of 1 mM for 24 h. Thereafter, cell viability was measured relative to untreated controls by the XTT assay and is represented on FIG. 11. No significant decrease in cell's viability was discernible at concentrations of up to 1 mM.

human CD39 = target: T3, human CD39 (Homo sapiens, UniProt P49961); test: Inhibition of human CD39, 0.5 μM PSB-170621A as substrate; format: biochemical; conditions: 0.5 μM PSB-170621A as a substrate; n = 3
T3 sequence (P49961 1-510): T1 sequence (P49961 1-510)

human NPP3 [5] = target: T4, human NPP3 (Homo sapiens, UniProt O14638); test: Inhibition of human NPP3, 100 μM p-Nph-5′-TMP as substrate (Tables 5, 7); format: biochemical; conditions: 100 μM p-Nph-5′-TMP as a substrate
T4 sequence (O14638 1-875): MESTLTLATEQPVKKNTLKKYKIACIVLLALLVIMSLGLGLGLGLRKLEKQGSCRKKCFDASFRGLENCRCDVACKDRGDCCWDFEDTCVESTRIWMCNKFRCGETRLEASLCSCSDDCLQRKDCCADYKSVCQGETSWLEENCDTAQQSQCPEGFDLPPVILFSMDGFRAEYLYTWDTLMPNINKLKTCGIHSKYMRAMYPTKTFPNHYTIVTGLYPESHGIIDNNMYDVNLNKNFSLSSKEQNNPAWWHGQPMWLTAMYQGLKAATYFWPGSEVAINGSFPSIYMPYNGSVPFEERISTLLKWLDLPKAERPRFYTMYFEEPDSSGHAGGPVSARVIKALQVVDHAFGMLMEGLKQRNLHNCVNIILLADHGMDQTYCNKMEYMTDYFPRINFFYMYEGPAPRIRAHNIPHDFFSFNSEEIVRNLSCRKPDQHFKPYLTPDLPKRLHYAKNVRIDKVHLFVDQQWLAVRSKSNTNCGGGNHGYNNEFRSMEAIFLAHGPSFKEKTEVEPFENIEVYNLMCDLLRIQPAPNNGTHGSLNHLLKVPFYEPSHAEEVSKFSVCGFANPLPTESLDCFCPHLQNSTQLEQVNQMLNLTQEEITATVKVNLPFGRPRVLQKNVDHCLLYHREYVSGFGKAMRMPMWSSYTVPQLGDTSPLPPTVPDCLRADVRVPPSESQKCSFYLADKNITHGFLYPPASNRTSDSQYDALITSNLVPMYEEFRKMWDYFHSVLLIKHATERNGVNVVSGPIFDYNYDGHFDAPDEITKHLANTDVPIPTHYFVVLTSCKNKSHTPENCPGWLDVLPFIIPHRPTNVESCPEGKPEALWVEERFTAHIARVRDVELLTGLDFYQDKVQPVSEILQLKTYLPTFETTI

human P2Y4R = target: T5, human P2Y4R (Homo sapiens, UniProt P51582); test: Calcium mobilization in 1321N1 astrocytoma cells expressing human P2Y4R; format: cell-based
T5 construct: expressed in transfected cells; host or cells: 1321N1 astrocytoma cells
T5 sequence (P51582 whole entry): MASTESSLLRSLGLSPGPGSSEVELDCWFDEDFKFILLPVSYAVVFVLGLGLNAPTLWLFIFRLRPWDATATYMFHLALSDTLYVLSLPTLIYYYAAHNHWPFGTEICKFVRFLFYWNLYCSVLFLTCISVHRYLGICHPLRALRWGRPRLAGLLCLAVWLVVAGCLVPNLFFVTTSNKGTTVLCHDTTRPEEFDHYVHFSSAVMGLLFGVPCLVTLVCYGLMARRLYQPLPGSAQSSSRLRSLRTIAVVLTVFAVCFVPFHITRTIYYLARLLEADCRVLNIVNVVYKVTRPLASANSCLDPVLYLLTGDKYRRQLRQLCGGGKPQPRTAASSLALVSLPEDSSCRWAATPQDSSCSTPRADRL
Description: (§1) Given the structural resemblance of 106-109 to the natural ligands of P2Y receptors, adenine and uracil nucleotides as natural substrates, were assessed for agonist potency on the human P2Y1, P2Y2, P2Y4, and P2Y6 receptor. To evaluate NPP1 selectivity of analogs 106-109, they were tested for their ability to activate of the uridine-nucleotide sensitive human recombinant P2Y1,2,4,6-receptors. The agonist potencies of this series of nucleotide analogues on the Gq protein-coupled human P2Y1R, P2Y2R, P2Y4R, and P2Y6R was determined by assessing its ability to induce calcium mobilization in stably transfected 1321N1 astrocytoma cells (Table 8). The nucleotide analogues were found in calcium mobilization assays to activate the P2Y2R with mid-micromolar potency.

human P2Y2R = target: T6, human P2Y2R (Homo sapiens, UniProt P41231); test: Calcium mobilization in 1321N1 astrocytoma cells expressing human P2Y2R; format: cell-based
T6 construct: expressed in transfected cells; host or cells: 1321N1 astrocytoma cells
T6 sequence (P41231 whole entry): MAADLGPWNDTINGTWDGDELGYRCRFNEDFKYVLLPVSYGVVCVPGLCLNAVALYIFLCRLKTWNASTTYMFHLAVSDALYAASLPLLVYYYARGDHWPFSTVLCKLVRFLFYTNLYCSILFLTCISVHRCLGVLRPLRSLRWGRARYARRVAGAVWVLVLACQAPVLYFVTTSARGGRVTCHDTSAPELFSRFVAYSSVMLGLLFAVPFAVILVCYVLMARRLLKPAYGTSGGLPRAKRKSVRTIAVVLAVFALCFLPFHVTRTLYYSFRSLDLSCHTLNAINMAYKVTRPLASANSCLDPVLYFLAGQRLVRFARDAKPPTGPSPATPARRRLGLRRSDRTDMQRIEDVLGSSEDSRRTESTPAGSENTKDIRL
Description: as §1

human P2Y1R = target: T7, human P2Y1R (Homo sapiens, UniProt P47900); test: Calcium mobilization in 1321N1 astrocytoma cells expressing human P2Y1R; format: cell-based
T7 construct: expressed in transfected cells; host or cells: 1321N1 astrocytoma cells
T7 sequence (P47900 whole entry): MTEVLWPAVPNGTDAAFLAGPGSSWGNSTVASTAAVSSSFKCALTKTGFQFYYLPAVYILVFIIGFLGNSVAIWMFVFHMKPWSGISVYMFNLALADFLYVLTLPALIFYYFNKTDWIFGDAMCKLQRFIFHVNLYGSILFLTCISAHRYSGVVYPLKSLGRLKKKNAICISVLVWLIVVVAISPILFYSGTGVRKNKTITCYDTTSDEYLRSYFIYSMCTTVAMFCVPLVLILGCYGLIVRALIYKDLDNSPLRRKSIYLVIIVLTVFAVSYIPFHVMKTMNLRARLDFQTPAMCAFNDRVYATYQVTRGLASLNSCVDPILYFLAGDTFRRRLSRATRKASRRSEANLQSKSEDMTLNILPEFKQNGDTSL
Description: as §1

P2Y6R = P2Y6R (Homo sapiens, UniProt Q15077); test: Calcium mobilization in 1321N1 astrocytoma cells expressing human P2Y6R; format: cell-based; parameters: expressed in transfected cells; host or cells: 1321N1 astrocytoma cells (stably transfected)
Chain of P2Y6R (Q15077 whole entry): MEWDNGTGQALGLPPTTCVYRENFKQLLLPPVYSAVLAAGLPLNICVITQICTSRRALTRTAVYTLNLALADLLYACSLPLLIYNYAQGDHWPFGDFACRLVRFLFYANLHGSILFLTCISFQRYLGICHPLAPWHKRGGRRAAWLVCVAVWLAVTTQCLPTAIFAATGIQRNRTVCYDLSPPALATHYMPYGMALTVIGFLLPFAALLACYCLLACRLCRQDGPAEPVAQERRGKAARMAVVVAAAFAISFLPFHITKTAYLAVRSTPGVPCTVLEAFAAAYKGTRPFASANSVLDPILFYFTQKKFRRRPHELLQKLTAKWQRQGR
Description: as §1

NPP1 [6] = target: T2, NPP1; conditions: literature value; cited from earlier work
Human CD39 (NTPDase1) [7] = target: T1, Human CD39 (NTPDase1); test: Inhibition of human CD39 (NTPDase1), 100 μM ADP as substrate; format: biochemical; conditions: 100 μM ADP as a substrate
Human CD73 = target: T8, Human CD73 (Homo sapiens, UniProt P21589); conditions: literature value; cited from earlier work
T8 sequence (P21589 27-549): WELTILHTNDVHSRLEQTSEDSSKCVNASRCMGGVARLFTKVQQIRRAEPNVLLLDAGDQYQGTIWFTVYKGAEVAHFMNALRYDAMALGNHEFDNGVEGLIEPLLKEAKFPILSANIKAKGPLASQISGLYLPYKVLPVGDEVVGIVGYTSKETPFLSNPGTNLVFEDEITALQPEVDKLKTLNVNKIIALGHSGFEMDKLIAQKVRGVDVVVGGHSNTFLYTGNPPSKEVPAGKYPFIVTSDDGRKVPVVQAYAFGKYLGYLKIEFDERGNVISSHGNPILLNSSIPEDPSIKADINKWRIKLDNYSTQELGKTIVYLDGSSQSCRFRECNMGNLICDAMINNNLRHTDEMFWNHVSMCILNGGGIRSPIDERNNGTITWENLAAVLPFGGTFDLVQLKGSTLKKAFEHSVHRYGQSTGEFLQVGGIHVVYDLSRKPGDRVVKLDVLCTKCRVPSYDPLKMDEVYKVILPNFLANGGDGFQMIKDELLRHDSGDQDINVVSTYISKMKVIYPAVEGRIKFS

human NPP3 [8] = target: T4, human NPP3; conditions: literature value; cited from earlier work
[9] = 10 μM, inactive = no inhibition at 10 μM

| SMILES | cell viability (XTT), toxicity [4] | % activation at 10 μM, P2Y4 (human P2Y4R) [%] | % activation at 10 μM, P2Y2 (human P2Y2R) [%] | % activation at 10 μM, P2Y1 (human P2Y1R) [%] | Ki (NPP1 [2]) [nM] | inhibition at 10 µM (NPP1 [2]) [%] | inhibition at 10 µM (NPP1 [3]; ATP (100 μM) as a substrate) [%] | % activation at 10 μM, P2Y6 (P2Y6R) [%] | also measured |
| --- | --- | --- | --- | --- | --- | --- | --- | --- | --- |
| Cc1ccc(C(=O)Nc2ccc(S(=O)(=O)O)c3cc(S(=O)(=O)O)cc(S(=O)(=O)O)c23)cc1NC(=O)c1cccc(NC(=O)Nc2cccc(C(=O)Nc3cc(C(=O)Nc4ccc(S(=O)(=O)O)c5cc(S(=O)(=O)O)cc(S(=O)(=O)O)c45)ccc3C)c2)c1 [Suramin] | – | – | – | – | – | – | – | – | Ki (Human CD39 (NTPDase1) [1]): 300 µM |
| Nc1ncnc2c1ncn2COCCOP(=S)(S)OP(=O)(O)OP(=O)(O)O (stereo not drawn) [Analogue 107] | slightly increase cell survival | – | – | – | – | – | – | – | inhibition type (Lineweaver-Burk plot) (NPP1 [2]; vs p-Nph-5′-TMP, […]): non-competitive inhibition; inhibition type (Lineweaver-Burk plot) (NPP1 [3]; vs ATP, α value of ~1): non-competitive inhibition |
| Nc1ncnc2c1ncn2COCCOP(=S)(S)OP(=O)(O)O (stereo not drawn) [Analogue 106] | slightly increase cell survival | – | – | – | – | – | – | – | – |
| Nc1ncnc2c1ncn2COCCOP(=S)(S)OP(=O)(O)OP(=O)(O)O (stereo not drawn) [compound 107] | – | −2 ± 2 | 39 ± 13 | −1 ± 1 | 1980 | 74 ± 1 | 66 ± 1 | −5 ± 3 | % inhibition ± SEM, human CD39 (human CD39): 28 ± 1%; % inhibition ± SEM, human NPP3 (human NPP3 [5]; n = 3): 17 ± 1%; Ki (NPP1 [3]; ATP (100 μM) as a substrate, read-out: Ki (μM ± SD), human NPP1 (converted)): 0.334 µM |
| Nc1ncnc2c1ncn2COCCOP(=S)(S)OP(=O)(O)C(Cl)(Cl)P(=O)(O)O (stereo not drawn) [compound 109] | – | 0 ± 2 | 21 ± 5 | −2 ± 1 | 698 | 85 ± 2 | 37 ± 1 | 2 ± 4 | – |
| Nc1ncnc2c1ncn2COCCOP(=S)(S)OP(=O)(O)CP(=O)(O)O (stereo not drawn) [compound 108] | – | −2 ± 1 | 44 ± 9 | 0 ± 1 | 2160 | 65 ± 1 | 16 ± 3 | −8 ± 2 | – |
| Nc1ncnc2c1ncn2[C@@H]1O[C@H](COP(=O)(O)CP(=O)(O)O)[C@@H](O)[C@H]1O [AOPCP, reference compound] | – | – | – | – | – | – | – | – | Ki (NPP1 [6]): 1.28 to 16.5 µM; % inhibition ± SD at 10 μM, Human CD39 (NTPDase1) (Human CD39 (NTPDase1) [7]; [9]): 12 ± 5%; Ki (Human CD39 (NTPDase1) [7]; read-out: Ki ± SD (μM), Human CD39 (NTPDase1)): > 10 µM; % inhibition ± SD at 10 μM, Human NPP3 (human NPP3 [5]; [9]): inactived; Ki (Human CD73): 0.197 µM |
| Nc1ncnc2c1ncn2COCCOP(=S)(S)OP(=O)(O)C(Cl)(Cl)P(=O)(O)O (stereo not drawn) [Analogue 109] | slightly increase cell survival | – | – | – | – | – | – | – | – |
| Nc1c(S(=O)(=O)O)cc(Nc2ccc(Nc3nc(Cl)nc(Nc4cccc(S(=O)(=O)O)c4)n3)c(S(=O)(=O)O)c2)c2c1C(=O)c1ccccc1C2=O [Reactive Blue 2] | – | – | – | – | – | – | – | – | Ki (NPP1 [6]): 0.52 µM; Ki (human NPP3 [8]): 0.71 µM; Ki (Human CD39 (NTPDase1) [1]): 20 µM; Ki (Human CD73): 3.07 µM |
